According to ChEMBL document CHEMBL3817817, “The design strategy of selective PTP1B inhibitors over TCPTP” (Bioorg Med Chem, 2016):
Each block holds one compound with its values, some of them ahead of it.

How the values were obtained:
[1] = target: T1, Tyrosine-protein phosphatase non-receptor type 1 (Homo sapiens, UniProt P18031); test: Inhibition of human recombinant PTP1B catalytic domain using p-nitrophenyl phosphate as substrate by micro plate reader method
T1 sequence (P18031 whole entry): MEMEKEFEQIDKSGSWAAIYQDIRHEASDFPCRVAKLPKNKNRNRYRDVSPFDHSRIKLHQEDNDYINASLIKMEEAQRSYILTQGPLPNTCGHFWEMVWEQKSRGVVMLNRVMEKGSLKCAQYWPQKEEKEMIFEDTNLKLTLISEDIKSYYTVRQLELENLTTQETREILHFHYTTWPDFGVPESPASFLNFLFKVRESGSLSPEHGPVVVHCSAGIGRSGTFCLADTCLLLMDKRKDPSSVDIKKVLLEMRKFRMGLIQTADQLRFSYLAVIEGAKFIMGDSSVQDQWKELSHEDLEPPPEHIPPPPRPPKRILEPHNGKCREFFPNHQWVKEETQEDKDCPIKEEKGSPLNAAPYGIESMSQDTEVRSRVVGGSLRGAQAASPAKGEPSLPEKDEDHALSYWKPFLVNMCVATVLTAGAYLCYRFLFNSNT

[2] = target: T2, Tyrosine-protein phosphatase non-receptor type 2 (Homo sapiens, UniProt P17706); test: Inhibition of human TCPTP using p-nitrophenyl phosphate as substrate by micro plate reader method
T2 sequence (P17706 whole entry): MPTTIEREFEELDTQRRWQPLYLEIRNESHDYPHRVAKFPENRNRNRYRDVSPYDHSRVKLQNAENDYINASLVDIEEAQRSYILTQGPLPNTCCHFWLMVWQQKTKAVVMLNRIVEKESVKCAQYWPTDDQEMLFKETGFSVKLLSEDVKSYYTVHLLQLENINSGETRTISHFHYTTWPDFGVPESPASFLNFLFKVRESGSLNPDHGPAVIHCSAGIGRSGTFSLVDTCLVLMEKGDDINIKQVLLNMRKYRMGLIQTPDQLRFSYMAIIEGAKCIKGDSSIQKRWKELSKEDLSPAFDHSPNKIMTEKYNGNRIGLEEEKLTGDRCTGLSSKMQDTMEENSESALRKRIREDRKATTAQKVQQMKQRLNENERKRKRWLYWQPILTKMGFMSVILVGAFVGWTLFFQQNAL

Homo sapiens [3] = species: Homo sapiens; test: Selectivity ratio of IC50 for human TCPTP to IC50 for human recombinant PTP1B
[4] = target: T2, Tyrosine-protein phosphatase non-receptor type 2; test: Inhibition of TCPTP (unknown origin)
[5] = target: T1, Tyrosine-protein phosphatase non-receptor type 1; test: Inhibition of human PTP1B (1 to 288 residues) expressed in Escherichia coli BL21 (DE3) cells using p-nitrophenyl phosphate as substrate monitered every 30 secs for 15 mins by micro plate reader method
Homo sapiens [6] = species: Homo sapiens; test: Selectivity ratio of IC50 for TCPTP (unknown origin) to IC50 for human PTP1B (1 to 288 residues)
[7] = target: T2, Tyrosine-protein phosphatase non-receptor type 2; test: Inhibition of recombinant TCPTP (unknown origin) at pH 7
[8] = target: T2, Tyrosine-protein phosphatase non-receptor type 2; test: Inhibition of human TCPTP (1 to 296 residues) catalytic domain expressed in Escherichia coli BL21 cells using fluorescein diphosphate as substrate by microplate reader method
Homo sapiens [9] = species: Homo sapiens; test: Selectivity ratio of Ki for TCPTP (unknown origin) to Ki for human PTP1B (1 to 288 residues)
[10] = target: T2, Tyrosine-protein phosphatase non-receptor type 2; test: Inhibition of TCPTP (unknown origin) using p-nitrophenyl phosphate as substrate by colorimetric method
[11] = target: T1, Tyrosine-protein phosphatase non-receptor type 1; test: Inhibition of human PTP1B (1 to 288 residues) expressed in Escherichia coli BL21 (DE3) cells using p-nitrophenyl phosphate as substrate by colorimetric method
[12] = target: T2, Tyrosine-protein phosphatase non-receptor type 2; test: Inhibition of human recombinant TCPTP (1 to 341 residues) expressed in Escherichia coli using p-nitrophenyl phosphate as substrate by UV spectroscopy
[13] = target: T1, Tyrosine-protein phosphatase non-receptor type 1; test: Inhibition of human recombinant PTP1B expressed in Escherichia coli using p-nitrophenyl phosphate as substrate by UV spectroscopy
Homo sapiens [14] = species: Homo sapiens; test: Selectivity ratio of IC50 for human recombinant TCPTP (1 to 341 residues) to IC50 for human recombinant PTP1B
[15] = target: T1, Tyrosine-protein phosphatase non-receptor type 1; test: Inhibition of PTP1B catalytic domain (1 to 321 residues) (unknown origin) expressed in Escherichia coli BL21 (DE3) cells using p-Nitrophenyl phosphate as substrate
Homo sapiens [16] = species: Homo sapiens; test: Selectivity ratio of Ki for TCPTP (unknown origin) to Ki for PTP1B catalytic domain (1 to 321 residues) (unknown origin)
[17] = target: T1, Tyrosine-protein phosphatase non-receptor type 1; test: Inhibition of PTP1B (unknown origin)
[18] = target: T1, Tyrosine-protein phosphatase non-receptor type 1; test: Inhibition of human recombinant PTP1B catalytic domain expressed in Escherichia coli BL21 (DE3) cells using p-Nitrophenyl phosphate as substrate by microplate reader method
Homo sapiens [19] = species: Homo sapiens; test: Selectivity ratio of IC50 for human GST-tagged TCPTP to IC50 for human recombinant PTP1B catalytic domain
[20] = target: T2, Tyrosine-protein phosphatase non-receptor type 2; test: Inhibition of human GST-tagged TCPTP expressed in Escherichia coli BL21 (DE3) cells using p-Nitrophenyl phosphate as substrate by microplate reader method

Compound: CO[C@H]1O[C@H](COCc2ccccc2)[C@@H](OCc2ccccc2)[C@H](OCc2cn(CCCOc3ccc(O)c(C(=O)O)c3)nn2)[C@H]1OCc1cn(CCCOc2ccc(O)c(C(=O)O)c2)nn1
IC50 [1]: 7.7 µM
IC50 [2]: 54.3 µM
Ratio IC50 (Homo sapiens [3]): 7.05

Compound: COC(=O)c1ccc(C(C/C=C/c2ccccc2)(Cc2ccc(C(F)(F)P(=O)(O)O)cc2)n2nnc3ccccc32)cc1 (stereo unspecified)
IC50 [8]: 0.087 µM

Compound: NC(=O)[C@H](Cc1ccc(C(F)(F)P(=O)(O)O)cc1)NC(=O)[C@H](Cc1ccc(O)cc1)NC(=O)Cc1ccc(C(F)(F)P(=O)(O)O)cc1
Ki [15]: 0.0049 µM
Ratio Ki (Homo sapiens [16]): 4.08
Ki [4]: 0.02 µM

Compound: CO[C@H]1O[C@H](Cn2cc(NC(=O)c3cccc(C(=O)Nc4cn(C[C@H]5O[C@H](OC)[C@H](OCc6ccccc6)[C@H](OCc6ccccc6)[C@@H]5OCc5ccccc5)nn4)c3)nn2)[C@@H](OCc2ccccc2)[C@@H](OCc2ccccc2)[C@H]1OCc1ccccc1
IC50 [1]: 1.5 µM
IC50 [2]: 15.5 µM
Ratio IC50 (Homo sapiens [3]): 10.3

Compound: COC(=O)[C@H](Cc1ccc(O)cc1)n1cc(CO[C@H]2[C@@H](OCc3ccccc3)[C@@H](OC)O[C@H](COCc3ccccc3)[C@H]2OCc2cn([C@@H](Cc3ccc(O)cc3)C(=O)OC)nn2)nn1
IC50 [18]: 9.6 µM
Ratio IC50 (Homo sapiens [19]): 6.2
IC50 [20]: 59.6 µM

Further lines, results first:

IC50 [4]: 164 µM
IC50 [5]: 6.9 µM
Ratio IC50 (Homo sapiens [6]): 23.8
Compound: COC(=O)c1c(O)cccc1OC/C=C/c1ccc(F)c(-c2cc(C(=O)O)no2)c1

Ki [7]: 7.2 µM
Compound: O=C(O)C(=O)Nc1sc2c(c1C(=O)O)CCN(CCc1ccccc1)C2

Ratio Ki (Homo sapiens [9]): 0.94
Ki [10]: 0.16 µM
Ki [11]: 0.17 µM
Compound: CCCCCNC(=O)[C@H](Cc1ccc(C(=O)C(=O)Nc2ccccc2C(=O)O)c(/C=C/C(N)=O)c1)NS(C)(=O)=O

IC50 [4]: 0.049 µM
Compound: CC(=O)N[C@H](Cc1ccc(N(C(=O)C(=O)O)c2ccccc2C(=O)O)c2ccccc12)C(=O)NCCCCCOc1cc2ccccc2cc1C(=O)O

IC50 [12]: 2.4 µM
IC50 [13]: 1.5 µM
Ratio IC50 (Homo sapiens [14]): 1.6
Compound: O=C(O)C(=O)c1ccc(OCc2ccc(COc3ccc(C(=O)C(=O)O)cc3)c(C(=O)Nc3ccc(Oc4ccccc4)cc3)c2)cc1

IC50 [4]: 19.2 µM
IC50 [17]: 0.92 µM
Compound: COC(=O)c1c(O)cccc1OC/C=C/c1cccc(-c2onc(C(=O)O)c2CO)c1
